Laboratory results as given in patent publication US20260206813A1, “COMPOSITION FOR PROMOTING GHRELIN SECRETION” (Meiji Co., Ltd., priority 2022, published 2026).

Test system: mouse stomach-derived ghrelin-secreting cell line MGN3-1
Assay: Secretion of active (acylated) ghrelin from MGN3-1 cells, ELISA
Type: cell-based
Settings: for Acylated ghrelin (% control): 2 hours culture, control = 100; for ghrelin secretion promoting effect: conclusion from Table 3, absence of a gastric lipase
Protocol: The mouse stomach-derived ghrelin-secreting cell line MGN3-1 was seeded at 1×10^5 cells/well in a 96-well plate and cultured for 24 hours. After culturing, the cells were washed with 200 μL of Dulbecco's PBS, and 100 μL of each solution containing one test substance as indicated in Table 1 (buffer solution: 50 μM sodium octanoate/DMEM) was added (test group). The concentration of the test substance was applied at 10 μM or 30 μM. In the control group, 100 μL of a buffer solution without test substance was added. The number of trials performed, n, for each group was 4. After each group was cultured for 2 hours, a culture solution was recovered and centrifuged (800 g, 5 minutes, 4° C.) to obtain 80 μL of a supernatant. The supernatant was added with 8 μL of 1 N HCl and stored at −80° C. Next, active ghrelin (acylated ghrelin) in the sample was measured by the ELISA method (Ghrelin (Acylated) EIA Kit A05117, Bertin Pharma). Average values of measured values of the concentrations of ghrelin secreted when the test substances as indicated in Table 2 or Table 3 were added were calculated and indicated as values (%) assuming that the value of the control is 100 (Tables 2 and 3). The test was conducted again using the same testing method as described above, and the concentration of active ghrelin (acylated ghrelin) secreted in the sample was measured (FIGS. 2 and 3).
Statistical analysis was performed using a t-test or one-way ANOVA (one-way analysis of variance), and a multiple comparison test was conducted using the Tukey-Kramer test.

[1] = Table 3, test substance 30 μM, n=4
[2] = Table 2, test substance 10 μM, n=4
[3] = Table 2, test substance 30 μM, n=4

Row | SMILES | Acylated ghrelin (% control) [1] [% control] | ghrelin secretion promoting effect (30 μM) | Acylated ghrelin (% control) [2] [% control] | Acylated ghrelin (% control) [3] [% control] | further results
1 | CCCCCCCC/C=C\CCCCCCCC(=O)OCC(COC(=O)CCCCCCC/C=C\CCCCCCCC)OC(=O)CCCCCCCCCCCCCCC [Test substance 9, 1,3-Dioleoyl-2-palmitoylglycerol] | 116 | ghrelin secretion promoting effect | – | – | acylated ghrelin concentration as compared with the control (summary of Table 3, 30 μM): increased
2 | CCCCCCCC/C=C\CCCCCCCC(=O)OC(COC(=O)CCCCCCCCCCCCCCC)COC(=O)CCCCCCCCCCCCCCC [Test substance 10, 1,3-Dipalmitoyl-2-oleoylglycerol] | 138 | ghrelin secretion promoting effect | – | – | acylated ghrelin concentration as compared with the control (summary of Table 3, 30 μM): increased
3 | CCCCCCCCCCCCCCCC(=O)OC(CO)CO [Test substance 4, 2-Monopalmitin] | 389 | – | 168 | 218 | increase of acylated ghrelin concentration as compared with the control (FIG. 1, repeat test, 30 μM, n=4, significant (p<0.05)): about 1.2 times
4 | CCCCCCCC/C=C\CCCCCCCC(=O)OC(CO)COC(=O)CCCCCCCCCCCCCCC (centres unmarked) [Test substance 8, 1-Palmitoyl-2-oleoylglycerol] | 206 | ghrelin secretion promoting effect | – | – | –
5 | CCCCCCCCCCCCCCCC(=O)O [Test substance 1, Palmitic acid, reference compound] | – | – | 82 | 107 | difference of acylated ghrelin from the control (Table 2, concentration not stated (10 μM and 30 μM tested)): no differences
6 | CCCCCCCC/C=C\CCCCCCCC(=O)OCC(O)CO (centres unmarked) [Test substance 5, 1-Monoolein] | 388 | – | 177 | 209 | –
7 | CCCCCCCC/C=C\CCCCCCCC(=O)OCC(CO)OC(=O)CCCCCCCCCCCCCCC (centres unmarked) [Test substance 7, 1-Oleoyl-2-palmitoylglycerol] | 237 | ghrelin secretion promoting effect | – | – | –
8 | CCCCCCCC/C=C\CCCCCCCC(=O)O [Test substance 2, Oleic acid] | – | – | 146 | 138 | –
9 | CCCCCCCCCCCCCCCC(=O)OCC(O)CO (centres unmarked) [Test substance 3, 1-Monopalmitin] | – | – | 105 | 134 | difference of acylated ghrelin from the control (Table 2, 10 μM): no differences; acylated ghrelin concentration as compared with the control (Table 2, printed 30 M): increase
10 | CCCCCCCC/C=C\CCCCCCCC(=O)OC(CO)CO [Test substance 6, 2-Monoolein] | 336 | – | 193 | 206 | –
